The source of these data is US8742082B2, “Compositions and methods for influencing satiety, lipid metabolism, and fat utilization” (Nestec S.A., priority 2008, dated 2014).

For one data set, the system named is Visfatin. In words: Real-time PCR gene expression in peripheral tissues: visfatin. The following applies: C57bl6j mice, high fat diet, 100 mg/kg/body weight in diet, 5 weeks. The format is in vivo. The procedure: (§1) The expression of 45 genes was measured by real-time PCR in peripheral tissues to identify genes that were differentially expressed in response to oral administration of oleoylethanolamide (OEA) or a non-hydrolysable OEA analog (KDS 5104), which affect satiety, lipid metabolism, fat utilization, food intake, and body fat mass.
(§2) Animals, diet, and experimental design. Adult male C57bl6j mice purchased at 8 weeks of age were individually housed and maintained ad libitum on high fat diet and water for 2 weeks. Seven mice were randomly allocated in 3 groups and fed with a high fat diet (lipids represented 50% of daily energy) for 2 weeks. For one kilogram, the composition of the high fat diet was: 235 g casein, 201 g saccharose, 3.5 g L-cystine, 85 g starch, 116 g maltodextrin, 60 g cellulose, 12 g vitamins mix (AIN-93M, UPAE, Jouy-en-Josas, France), 51.5 g mineral mix (AIN-93Vx, UPAE, Jouy-en-Josas, France), and 236 g lard. Then, either OEA or KDS 5104 was added to the diet at a concentration of 100 mg/kg/body weight. The mice were kept under treatment for 5 weeks.
(§3) Sampling. At the end of the experimental period, mice were sacrificed by blood drawing (cardiac puncture) after anesthesia with isoflurane. Plasma was obtained by centrifugation (1,000 g for 10 min at 4° C.). Mesenteric, epididymal, inguinal and peritoneal adipose depots, as well as liver, stomach, small intestine mucosa, pancreas, and gastrocnemian muscle were removed and frozen into liquid nitrogen. Plasma, urine, feces, and organ samples were kept at −80° C. until analysis.
(§4) RNA extraction and gene expression. Total RNA from liver, intestine mucous membrane, adipose tissues, gastrocnemian muscle, pancreas and stomach were extracted with TRIzol reagent (Invitrogen, Carlsbad, USA) according to the manufacturer's instruction. The RNA concentration was determined on nanodrop from the absorbance at 260 nm. […] Real-time quantitative PCR (RT-qPCR) were performed on cDNA obtained as described above using a high through put system (Biomek 3000, Beckman & Coulter, Fullerton, USA) and a Lightcycler 480 (Roche/Hitachi, Basel, Switzerland) with SYBR Green Master mix+kit (Eurogentec, Philadelphia, USA). […] Values were expressed as ratio of RNA levels relative to control mice (diets with 0 mg of OEA/kg/body weight) using ΔΔ(Ct) (Livak K J & Schmittgen T D, 2001, Methods 25:402-8). Gene expression of the following genes was measured (abbreviation and GenBank Accession shown in parentheses).
(§5) Statistical analysis. […] Daily food intake was analyzed using two-way ANOVA on Statview software. […] For statistical analysis of the gene expression data, values were calculated relative to 18S expression for each mouse and gene.

For data set [1] the following is noted: oral, over the 12 first hours; cited from earlier work.
The test system of data set [2] is Fatty acid amide hydrolase (FAAH). Kind of data set: Real-time PCR gene expression in peripheral tissues: FAAH. The format is in vivo. Particulars: C57bl6j mice, high fat diet, 100 mg/kg/body weight in diet, 5 weeks. The procedure: as §1, §2, §3
(§6) RNA extraction and gene expression. Total RNA from liver, intestine mucous membrane, adipose tissues, gastrocnemian muscle, pancreas and stomach were extracted with TRIzol reagent (Invitrogen, Carlsbad, USA) according to the manufacturer's instruction. The RNA concentration was determined on nanodrop from the absorbance at 260 nm. Retro-transcription PCRs to synthesize cDNA were performed using an Applied Biosystem Thermal Cycler 2720 and Superscript II (Invitrogen, Carlsbad, USA) according to manufacturer's protocol. Real-time quantitative PCR (RT-qPCR) were performed on cDNA obtained as described above using a high through put system (Biomek 3000, Beckman & Coulter, Fullerton, USA) and a Lightcycler 480 (Roche/Hitachi, Basel, Switzerland) with SYBR Green Master mix+kit (Eurogentec, Philadelphia, USA). Primers for the selected genes were generated using online informatics assistance from the Lightcycler manufacturer (Roche). Databases used to identify the genes were (1) the NCBI database (GenBank) and (2) the IHOP (Information Hyperlinked over Protein) database (www.ihop-net.org/UniPub/iHOP/bng/). Values were expressed as ratio of RNA levels relative to control mice (diets with 0 mg of OEA/kg/body weight) using ΔΔ(Ct) (Livak K J & Schmittgen T D, 2001, Methods 25:402-8). Gene expression of the following genes was measured (abbreviation and GenBank Accession shown in parentheses).
(§7) Statistical analysis. […] Statistical analysis of physiological parameters and gene expression data was performed by one-way ANOVA on Statview software (SAS Institute, Cary, USA). Daily food intake was analyzed using two-way ANOVA on Statview software. Statistical significance was set up at the P<0.05 level, the P<0.01 level and the P<0.001 level. For statistical analysis of the gene expression data, values were calculated relative to 18S expression for each mouse and gene.

In data set [3] the test system is Stearoyl-Coenzyme A desaturase 1 (SCD 1). Kind of data set: Real-time PCR gene expression in peripheral tissues: SCD1. The following applies: C57bl6j mice, high fat diet, 100 mg/kg/body weight in diet, 5 weeks. Format: in vivo. The procedure: as §1, §2, §3, §6, §7
The nature of data set [4]: Chronic oral OEA in high fat diet: liver, adipose fat pads and body weight. Format: in vivo. The following applies: C3H mice, 4 weeks. An excerpt:
(§8) The physiological and biochemical effects of chronic oral OEA administration were investigated. Mice were chronically fed with OEA, provided as a supplement during 4 weeks, to study the effect on body weight gain and cumulative food intake, among other parameters.
(§9) Animals, diet and experimental design. Adult male C3H mice purchased at 8 weeks of age were individually housed and maintained ad libitum on different diets and water for 2 weeks. Seven mice were allocated in 3 groups by randomization by weight, and fed with a high fat diet (lipids represented 50% of daily energy) during 2 weeks. The composition of the high fat diet per kg was: 284.5 g of corn starch, 89.5 g of saccharose, 250 g of casein, 50 g of cellulose, 10 g of a mix of vitamins (V1001), 35 g of a mix of minerals (S10026) and 281 g of canola oil (UPAE, Jouy en Josas, France). Then, OEA was added to the diets at different levels to provide 0, 10, or 100 mg OEA/kg body weight. The mice were kept on each respective diet for 4 weeks. During the nutritional intervention, daily food intake was monitored and the mice were weighed 3 times a week.
(§10) Sampling. At the end of the experimental period, mice were sacrificed by blood drawing after anesthesia with isoflurane. Plasma was obtained by centrifugation (1,000 g for 10 min at 4° C.). Mesenteric, epididymal, inguinal and peritoneal adipose depots, as well as liver, stomach, small intestine mucosa and gastrocnemian muscle were excised and frozen into liquid nitrogen. Plasma and organ samples were kept at −80° C. until analysis. Triglycerides, glucose, total cholesterol and HDL cholesterol were directly measured on plasma samples collected during the sacrifice by enzymatic procedures, using a Beckman Coulter Systems SYNCHRON LX 20 (Beckman Coulter, Fullerton, USA) (oxidase method, Beckman Coulter for glucose, GPO method, Beckman Coulter for TG, oxidase and esterase method, Beckman Coulter for cholesterol). HDL were isolated by specific solubilization, using a precipitation isolation kit (Beckman Coulter, Fullerton, USA).
(§11) Statistical analysis. Results were determined as mean±standard error of the mean (SEM). Statistical analysis of physiological parameters was performed by one-way ANOVA on Statview software (SAS institute, Cary, USA). Statistical significance was set up at the P<0.05 level.

Another data set concerns Adiponectin. In words: Real-time PCR gene expression in peripheral tissues: adiponectin. The format is in vivo. The following applies: C57bl6j mice, high fat diet, 100 mg/kg/body weight in diet, 5 weeks. The procedure:
as §1, §2, §3, §4, §5

Data set [5] is described as follows: Chronic oral OEA in high fat diet: plasma triglycerides and cholesterol. The format is in vivo. The following applies: C3H mice, 4 weeks; for Plasma triglycerides, change: P<0.05.
Source text: as §8, §9, §10, §11

The target in data set [6] is G-protein coupled cannabinoid receptor GPR119 (Homo sapiens, UniProt Q8TDV5). Particulars: cited from earlier work.
In data set [7] the test system is Glucose transporter 4 (Glut 4). Kind of data set: Real-time PCR gene expression in peripheral tissues: Glut 4. The format is in vivo. The following applies: muscle; C57bl6j mice, high fat diet, 100 mg/kg/body weight in diet, 5 weeks. The procedure:
as §1
Animals, diet, and experimental design. Adult male C57bl6j mice purchased at 8 weeks of age were individually housed and maintained ad libitum on high fat diet and water for 2 weeks. Seven mice were randomly allocated in 3 groups and fed with a high fat diet (lipids represented 50% of daily energy) for 2 weeks. […]
as §4, with “Total RNA from liver, intestine mucous membrane, adipose tissues, gastrocnemian muscle, pancreas and stomach were extracted with TRIzol reagent (Invitrogen, Carlsbad, USA) according to the manufacturer's instruction.” left out, “parentheses). […]” for “parentheses).”

Each structure is given as a SMILES string.

Chain of G-protein coupled cannabinoid receptor GPR119 (Q8TDV5 whole entry): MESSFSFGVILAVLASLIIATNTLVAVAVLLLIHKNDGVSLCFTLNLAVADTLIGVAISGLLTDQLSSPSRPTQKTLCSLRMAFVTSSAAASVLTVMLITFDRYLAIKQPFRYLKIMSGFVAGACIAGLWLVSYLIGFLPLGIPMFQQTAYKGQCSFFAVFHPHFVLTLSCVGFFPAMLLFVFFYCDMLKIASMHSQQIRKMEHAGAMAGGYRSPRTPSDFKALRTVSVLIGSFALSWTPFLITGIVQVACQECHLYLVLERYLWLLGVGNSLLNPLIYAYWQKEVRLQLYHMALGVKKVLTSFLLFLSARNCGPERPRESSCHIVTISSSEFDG

On to `CCCCCCCC/C=C\CCCCCCCC(=O)NCCO` [OEA, N-oleoyl-ethanolamide], for which the “visfatin at ep, ratio of RNA levels relative to control mice” value in the data set on Visfatin (epidydimal adipose tissue) is reported as −1.55. For the same compound, the “visfatin at per, ratio of RNA levels relative to control mice” value with Visfatin (peritoneal adipose tissue) is on record as −1.80. The “food intake after acute gavage” value in data set [1] was “decrease significantly”. In [2] (epidydimal adipose tissue), the “FAAH at ep, ratio of RNA levels relative to control mice” value was 2.22. Moreover, the “FAAH at per, ratio of RNA levels relative to control mice” value in data set [2] (peritoneal adipose tissue) is 1.62. Moreover, the “FAAH i, ratio of RNA levels relative to control mice” value in data set [2] (proximal intestine) came out at 1.68. For the same compound, in data set [3] (epidydimal adipose tissue), the “SCD 1 at ep, ratio of RNA levels relative to control mice” value came to 1.00. Further, the “SCD1 l, ratio of RNA levels relative to control mice” value in [3] (liver) is −2.13. In data set [3] (peritoneal adipose tissue), the “SCD 1 at per, ratio of RNA levels relative to control mice” value is −1.30. In addition, the mesenteric fat pads entry in data set [4] (independently of the dose) is listed as “remained unaffected”. In data set [4] (OEA 10 or 100 mg/kg body weight), the Peritoneal adipose tissue entry is “mainly decreased”. In data set [4] (OEA in diet), the Hepatomegaly entry is on record as “did not induce hepatomegaly”. For the same compound, the final body weight entry in data set [4] (OEA in diet) is listed as “not affected”. The “inguinal fat pads (indicator of subcutaneous fat depot)” value in data set [4] (OEA in diet, P<0.05) is listed as “decreased”. In the data set with Adiponectin (epidydimal adipose tissue), the “adiponectin at ep, ratio of RNA levels relative to control mice” value is given as −1.14. Further, the “adiponectin at per, ratio of RNA levels relative to control mice” value in the data set on Adiponectin (peritoneal adipose tissue) is −2.08. The “Plasma triglycerides, change” value is −72% in [5] (10 mg dose) and −59% in [5] (100 mg dose). Further, in data set [5] (10 mg/kg), the plasma total cholesterol entry was “trend to decreased”. Further, the “plasma total cholesterol (decrease)” value in data set [5] (100 mg/kg body weight) is “reached statistical significance”. In addition, in [6], the “binding to GPR119” value was “can also bind”. Besides, in data set [7], the “Glut 4 m, ratio of RNA levels relative to control mice” value is reported as 3.27.
